Key:
Format in all cases: cell-based
[1] = test system: Gram-negative bacilli; experiment: Experimental Example 1: bacterial vaginosis specimen suspension cultured in the composition, Gram smear; details: 10.0% sucrose, 1.0% yeast extract, 1.6% xanthan gum, pH 5.0, anaerobic, 37° C.
Experimental: (§1) • (1) The preparation of the composition: Sucrose was used to prepare the following composition according to the method mentioned above: sucrose 10.0% (W/V), yeast extract 1.0% (W/V), Xanthan gum 1.6% (W/V), pH 5.0; then filled the composition into the tubes after sterilization, with each tube containing 5 ml, and pre-reduced for use. • (2) Specimen suspension: Vaginal secretion was taken from one of the patients suffering from typical bacterial vaginosis with a cotton swab, then the swab was washed in 2 ml sterilized Trypcase-soy Broth immediately, and thus the specimen suspension was ready. […] The tubes were placed in an incubator for cultivation, at 37° C., anaerobically. Then, culture samples were taken from the tubes at 10 hours and 24 hours later respectively. The Gram smears of the samples were observed and the pH values of the samples were measured.

[2] = test system: Gram-negative cocci; experiment: as above; details: 10.0% sucrose, 1.0% yeast extract, 1.6% xanthan gum, pH 5.0, anaerobic, 37° C.
Experimental: as §1

[3] = test system: Gram-positive bacilli; experiment: as above; details: 10.0% sucrose, 1.0% yeast extract, 1.6% xanthan gum, pH 5.0, anaerobic, 37° C.
Experimental: as §1

[4] = test system: Gram-positive cocci; experiment: as above; details: 10.0% sucrose, 1.0% yeast extract, 1.6% xanthan gum, pH 5.0, anaerobic, 37° C.
Experimental: as §1

[5] = test system: vaginal secretion specimen of a patient suffering from typical bacterial vaginosis; experiment: Experimental Example 1: pH of culture samples (production of acids); details: 10.0% sucrose, 1.0% yeast extract, 1.6% xanthan gum, pH 5.0, anaerobic, 37° C.
Experimental: as §1

[6] = test system: Gram-negative bacilli; experiment: Experiment Example 3: 2.5% maltose or sucrose, specimen culture, Gram smear; details: 2.5% saccharide, 1.0% yeast extract, 1.6% xanthan gum, pH 6.2, candle jar, 37° C.
Experimental: (§2) • (1) The preparation of the compositions: Maltose and sucrose were used respectively to prepare the following composition according to the methods mentioned above: • A. 2.5% maltose, 1.0% yeast extract, 1.6% xanthan gum, pH adjusted to 6.2; • B. 2.5% sucrose, 1.0 yeast extract, 1.6% xanthan gum, pH adjusted to 6.2; • (2) The preparation of the test tubes: Compositions as prepared above were filled into the test tubes, with each tube containing 5 ml, sterilized, and kept until use for experiment. • (3) Specimen suspension: Vaginal secretion was taken from one of the patients suffering from typical bacterial vaginosis with a cotton swab, then the swab was washed in 2 ml sterilized Trypcase-soy Broth immediately, and thus the specimen suspension was ready. […] Then the tubes were placed in a candle jar and cultivated at 37° C. After 24 hours and 48 hours' culture, culture samples were taken respectively from each of the tubes, then the Gram smears of the samples were observed and the pH values of culture samples were tested.

[7] = test system: Gram-negative cocci; experiment: as above; details: 2.5% saccharide, 1.0% yeast extract, 1.6% xanthan gum, pH 6.2, candle jar, 37° C.
Experimental: as §2

[8] = test system: Gram-positive bacilli; experiment: as above; details: 2.5% saccharide, 1.0% yeast extract, 1.6% xanthan gum, pH 6.2, candle jar, 37° C.
Experimental: as §2

[9] = test system: vaginal secretion specimen of a patient suffering from typical bacterial vaginosis; experiment: Experiment Example 3: pH of culture samples (production of acids); details: 2.5% saccharide, 1.0% yeast extract, 1.6% xanthan gum, pH 6.2, candle jar, 37° C.
Experimental: as §2

OC[C@H]1O[C@@](CO)(O[C@H]2O[C@H](CO)[C@@H](O)[C@H](O)[C@H]2O)[C@@H](O)[C@@H]1O [Sucrose, sucrose]
Bacteria G − b (Gram-negative bacilli), 10 hours-culture ([1]; 10 hours): G − b, ++ (About 10-99 bacteria per field of vision under oil-immersion lens)
Bacteria G − b (Gram-negative bacilli), 24 hours-culture ([1]; 24 hours): G − b, ++ (About 10-99 bacteria per field of vision under oil-immersion lens)
Bacteria G − c (Gram-negative cocci), 24 hours-culture [2]: G − c, + (1-9 bacteria per field of vision under oil-immersion lens)
Bacteria G + b (Gram-positive bacilli), 10 hours-culture ([3]; 10 hours): G + b, +++ (About 100 bacteria or more per field vision under oil-immersion lens, even uncountable)
Bacteria G + b (Gram-positive bacilli), 24 hours-culture ([3]; 24 hours): G + b, ++++
Bacteria G + c (Gram-positive cocci), 24 hours-culture [4]: G + C, ++ (About 10-99 bacteria per field of vision under oil-immersion lens)
pH, 10 hours-culture ([5]; 10 hours): 5.0
pH, 24 hours-culture ([5]; 24 hours): 4.0
Bacteria G − b (Gram-negative bacilli), 24 hours-culture ([6]; 24 hours): G − b, + (1-9 bacteria per field of vision under oil-immersion lens)
Bacteria G − b (Gram-negative bacilli), 48 hours-culture ([6]; 48 hours): G − b, ++ (About 10-99 bacteria per field of vision under oil-immersion lens)
Bacteria G − c (Gram-negative cocci), 24 hours-culture ([7]; 24 hours): G − c, − (No or less than one bacterium per field of version under oil-immersion lens)
Bacteria G − c (Gram-negative cocci), 48 hours-culture ([7]; 48 hours): G − c, − (No or less than one bacterium per field of version under oil-immersion lens)
Bacteria G + b (Gram-positive bacilli), 24 hours-culture ([8]; 24 hours): G + b, + (1-9 bacteria per field of vision under oil-immersion lens)
Bacteria G + b (Gram-positive bacilli), 48 hours-culture ([8]; 48 hours): G + b, + (1-9 bacteria per field of vision under oil-immersion lens)
pH, 24 hours-culture ([9]; 24 hours): 6.2
pH, 48 hours-culture ([9]; 48 hours): 6.7
